Measured values: patent US20200024278A1, “COMPOSITION COMPRISING ANTIBIOTIC COMPOUND AND AN HETEROCYCLIC COMPOUND AND THEIR USE IN PREVENTING OR TREATING BACTERIAL INFECTIONS” (MUTABILIS, priority 2016, published 2020)

Columns and labels:
Test in all cases: MIC, broth microdilution (CLSI), substance alone or ATB combined with compound at 4 or 8 μg/mL
[1] = test system: PAE 105250; type: cell-based, P. aeruginosa; details: PAE 105250
Method: (§1) Compounds of the present invention were assessed against genotyped bacterial strains alone or in combination with an antibacterial. In the assays, MICs of said compounds or combination of antibiotics with fixed concentrations of said compounds (4 or 8 μg/mL) were determined by the broth microdilution method according to the Clinical Laboratory Standards Institute (CLSI-M7-A7). Briefly, compounds alone according to the invention were prepared in DMSO and spotted (2 μL each) on sterile polystyrene plates (Corning, 3788). Combinations of compounds and antibiotics dilutions were prepared in DMSO and spotted (1 μL each) on sterile polystyrene plates (Corning, 3788). Log phase bacterial suspensions were adjusted to a final density of 5·10^5 CFU/mL in cation-adjusted Mueller-Hinton broth (ca-MHB; Becton-Dickinson and Company) and added to each well (98 μL). Assays including Fosfomycin were supplemented with 25 μg/ml of Glucose-6-phosphate. Microplates were incubated for 16-20 h at 35° C. in ambient air. The MIC of the compounds was defined as the lowest concentration of said compounds that prevented bacterial growth as read by visual inspection. The MIC of ATB at each compound concentration was defined as the lowest concentration of ATB that prevented bacterial growth as read by visual inspection.

[2] = test system: PAE UFR48; type: cell-based, P. aeruginosa; details: PAE UFR48
Method: as §1

[3] = test system: PAE UFR90; type: cell-based, P. aeruginosa; details: PAE UFR90
Method: as §1

[4] = test system: SPN 49619; type: cell-based, S. pneumoniae; details: SPN 49619
Method: as §1

[5] = test system: SAU 29213; type: cell-based, S. aureus; details: SAU 29213
Method: as §1

[6] = test system: ECL P99; type: cell-based, E. cloacae; details: ECL P99
Method: as §1

[7] = test system: ECO 190317; type: cell-based, E. coli; details: ECO 190317
Method: as §1

[8] = test system: ECO UFR39; type: cell-based, E. coli; details: ECO UFR39; with Example 13 at 8 μg/ml
Method: as §1

MIC ATB combined with Example 1 @8 μg/ml ([1]; with Example 1 @8 μg/ml): <0.031 µg/mL
MIC ATB combined with Example 1 @8 μg/ml ([1]; with Example 1 at 8 μg/ml): <0.031 µg/mL
MIC ATB combined with Example 11 @8 μg/ml ([1]; with Example 11 at 8 μg/ml): 32 µg/mL
MIC ATB combined with Example 12 @8 μg/ml ([1]; with Example 12 at 8 μg/ml): >32 µg/mL
MIC ATB combined with Example 14 @8 μg/ml ([1]; with Example 14 at 8 μg/ml): >32 µg/mL
MIC ATB combined with Example 15 @4 μgml ([1]; with Example 15 at 4 μg/ml): 32 µg/mL
MIC ATB combined with Example 16 @4 μg/ml ([1]; with Example 16 at 4 μg/ml): >32 µg/mL
MIC ATB combined with Example 1 @8 μg/ml ([2]; with Example 1 @8 μg/ml): <0.031 µg/mL
MIC ATB combined with Example 1 @8 μg/ml ([2]; with Example 1 at 8 μg/ml): <0.031 µg/mL
MIC ATB combined with Example 7 @8 μgml ([2]; with Example 7 at 8 μg/ml): >32 µg/mL
MIC ATB combined with Example 11 @8 μg/ml ([2]; with Example 11 at 8 μg/ml): >32 µg/mL
MIC ATB combined with Example 12 @8 μg/ml ([2]; with Example 12 at 8 μg/ml): >32 µg/mL
MIC ATB combined with Example 15 @4 μgml ([2]; with Example 15 at 4 μg/ml): >32 µg/mL
MIC ATB combined with Example 16 @4 μg/ml ([2]; with Example 16 at 4 μg/ml): >32 µg/mL
MIC ATB combined with Example 1 @8 μg/ml ([3]; with Example 1 @8 μg/ml): <0.031 µg/mL
MIC ATB combined with Example 1 @8 μg/ml ([3]; with Example 1 at 8 μg/ml): <0.031 µg/mL
MIC ATB combined with Example 7 @8 μgml ([3]; with Example 7 at 8 μg/ml): >32 µg/mL
MIC ATB combined with Example 11 @8 μg/ml ([3]; with Example 11 at 8 μg/ml): 32 µg/mL
MIC ATB combined with Example 12 @8 μg/ml ([3]; with Example 12 at 8 μg/ml): >32 µg/mL
MIC ATB combined with Example 14 @8 μg/ml ([3]; with Example 14 at 8 μg/ml): >32 µg/mL
MIC ATB combined with Example 16 @4 μg/ml ([3]; with Example 16 at 4 μg/ml): >32 µg/mL
MIC ATB combined with Example 7 @8 μgml ([4]; with Example 7 at 8 μg/ml): 0.063 µg/mL
MIC ATB combined with Example 9 @4 μg/ml ([4]; with Example 9 @4 μg/ml): <=0.031 μg/mL
MIC ATB combined with Example 9 @4 μg/ml ([4]; with Example 9 at 4 μg/ml): <=0.031 μg/mL
MIC ATB combined with Example 11 @8 μg/ml ([4]; with Example 11 at 8 μg/ml): <=0.031 μg/mL
MIC ATB combined with Example 13 @8 μg/ml ([4]; with Example 13 at 8 μg/ml): <=0.031 μg/mL
MIC ATB combined with Example 15 @4 μgml ([4]; with Example 15 at 4 μg/ml): <=0.031 μg/mL
MIC ATB alone ([5]; antibiotic alone): 8 µg/mL
MIC ATB combined with Example 1 @8 μg/ml ([5]; with Example 1 @8 μg/ml): 4 µg/mL
MIC ATB combined with Example 1 @8 μg/ml ([5]; with Example 1 at 8 μg/ml): 4 µg/mL
MIC ATB combined with Example 7 @8 μgml ([5]; with Example 7 at 8 μg/ml): 2 µg/mL
MIC ATB combined with Example 11 @8 μg/ml ([5]; with Example 11 at 8 μg/ml): <=0.031 μg/mL
MIC ATB combined with Example 13 @8 μg/ml ([5]; with Example 13 at 8 μg/ml): 4 µg/mL
MIC ATB combined with Example 1 @8 μg/ml ([6]; with Example 1 @8 μg/ml): <0.031 µg/mL
MIC ATB combined with Example 1 @8 μg/ml ([6]; with Example 1 at 8 μg/ml): <0.031 µg/mL
MIC ATB combined with Example 7 @8 μgml ([6]; with Example 7 at 8 μg/ml): 2 µg/mL
MIC ATB combined with Example 13 @8 μg/ml ([6]; with Example 13 at 8 μg/ml): 1 µg/mL
MIC ATB combined with Example 1 @8 μg/ml ([7]; with Example 1 @8 μg/ml): <0.031 µg/mL
MIC ATB combined with Example 1 @8 μg/ml ([7]; with Example 1 at 8 μg/ml): <0.031 µg/mL
MIC ATB combined with Example 13 @8 μg/ml ([7]; with Example 13 at 8 μg/ml): <0.031 µg/mL
MIC ATB combined with Example 13 @8 μg/ml [8]: <0.031 µg/mL
SMILES: CO/N=C(\C(=O)N[C@@H]1C(=O)N2C(C(=O)O)=C(CSc3nc(=O)c(O)nn3C)CS[C@H]12)c1csc(N)n1 [CTR]
